Read-outs that look alike come from different tables or passages of the source.
Assays:
HCT-116 = assay: NCI antiproliferative SRB assay, Colon Cancer panel; format: cell-based, Human
HCT-15 = assay: as above; format: cell-based, Human
OVCAR-3 = assay: NCI antiproliferative SRB assay, Ovarian Cancer panel; format: cell-based, Human
[1] = test system: Ovarian Cancer cell line panel; assay: NCI antiproliferative assay, panel summary; format: cell-based, Human
[2] = test system: Non-Small Cell Lung Cancer cell line panel; assay: NCI antiproliferative assay, panel summary; format: cell-based, Human
MOLT-4 = assay: NCI antiproliferative SRB assay, Leukemia panel; format: cell-based, Human
COLO 205 = assay: NCI antiproliferative SRB assay, Colon Cancer panel; format: cell-based, Human
SK-MEL-5 = assay: NCI antiproliferative SRB assay, Melanoma panel; format: cell-based, Human
Melanoma cell line panel = assay: NCI antiproliferative assay, panel summary; format: cell-based, Human
UO-31 = assay: NCI antiproliferative SRB assay, Renal Cancer panel; format: cell-based, Human
[3] = test system: Prostate Cancer cell line panel; assay: NCI antiproliferative assay, panel summary; format: cell-based, Human
60 NCI cancer cell lines = assay: NCI antiproliferative assay, summary over all lines; format: cell-based
IGROV1 = assay: NCI antiproliferative SRB assay, Ovarian Cancer panel; format: cell-based, Human
HL-60(TB) = assay: cells; format: cell-based
MDA-MB-468 = assay: NCI antiproliferative SRB assay, Breast Cancer panel; format: cell-based, Human
Procedure: The antiproliferative activity of tested compounds was done against five dozen (60) cancer cell lines derived from nine different panels. All of the compounds were evaluated for antiproliferative activity in a single dose at 10 µM. Growth percent (GP) and percent growth inhibition (% GI) were used to calculate antiproliferative activity. […] The antiproliferative results of five-dose assay were calculated as three dose related parameters like, 50% growth inhibition (GI50), 50% lethal concentration (LC50), and total growth inhibition TGI [43, 44, 45, 46, 47].
Human tumor cell lines were grown in RPMI 1640 medium containing 5% fetal bovine serum and 2 mM L-glutamine. For a typical screening experiment, cells were inoculated into 96-well microtiter plates in 100 µL at plating densities ranging from 5000 to 40,000 cells/well, depending on the doubling time of individual cell lines. Two plates of each cell line were fixed in situ with trichloroacetic acid (TCA) after 24 h to represent a cell population measurement for each cell line at the time of drug addition (Ti). The experimental drugs were frozen after being solubilized in dimethyl sulfoxide at 400-fold the desired final maximum test concentration. An aliquot of frozen concentrate was thawed and diluted to twice the desired final maximum test concentration with medium containing 50 µg/mL gentamicin at the time of drug addition. Additional four, 10-fold, or ½ log serial dilutions serial dilutions were performed to provide a total of five drug concentrations plus the control. Aliquots of 100 µL of these different drug dilutions were added to the appropriate microtiter wells already containing 100 µL of medium, resulting in the required final drug concentrations. Following drug addition, the plates are incubated for an additional 48 h at 37 °C, 5% CO2, 95% air, and 100% relative humidity. For adherent cells, the assay is terminated by the addition of cold TCA. Cells are fixed in situ by the gentle addition of 50 µL of cold 50% (w/v) TCA (final concentration, 10% TCA) and incubated for 60 min at 4 °C. The supernatant is discarded, and the plates are washed five times with tap water and air dried. Sulforhodamine B (SRB) solution (100 µL) at 0.4% (w/v) in 1% acetic acid was added to each well, and plates were incubated for 10 min at room temperature. After staining, unbound dye was removed by washing five times with 1% acetic acid and the plates were air dried. Bound stain was subsequently solubilized with 10 mM trizma base, and the absorbance was read on an automated plate reader at a wavelength of 515 nm. For suspension cells, the methodology was the same except that the assay was terminated by fixing settled cells at the bottom of the wells by gently adding 50 µL of 80% TCA (final concentration, 16% TCA). […]
Antiproliferative activity
The anticancer screening was carried ou t as per the NCI US protocol. Using the seven absorbance measurements (time zero, (Ti), control growth, (C), and test growth in the presence of drug at the five concentration levels (Tf)), the percentage growth was calculated at each of the drug concentrations level as [( Tf−Ti × 100 for concentrations for which Tf ≥ Ti, and Tf−Ti × 100 for […]
concentrations for which Tf < Ti.
Three-dose response parameters (GI50, TGI, and LC50) were calculated for each of the experimental agents. Growth inhibition of 50% (GI50) was calculated from 100 × Tf−Ti = 50, , which was […]
the drug concentration resulting in a 50% reduction in the net protein increase (as measured by sulforhodamine B, SRB staining) in control cells during the drug incubation. The total growth inhibition (TGI) was calculated from Tf = Ti, which was the drug concentration resulting in total growth inhibition and signified the cytostatic effect. The LC50 was calculated from 100 × Tf−Ti = −50, , indicating a net loss […]
of cells following treatment which indicated the concentration of drug resulting in a 50% reduction in the […]

[4] = Homo sapiens, 5-dose 0.01-100 µM
[5] = Homo sapiens, 5-dose 0.01-100 µM, read-out: LC50 (the source's name)
[6] = Homo sapiens, 5-dose assay, read-out: Sub Panel MID b (mean GI50 of panel)
[7] = mean over cell lines, one dose 10 µM

`COc1ccc(NC(=O)n2nc(/C=C/c3ccc(O)c(OC)c3)cc2/C=C/c2ccc(O)c(OC)c2)cc1` [3b] was tested, and the TGI (HCT-116; 5-dose 0.01-100 µM) was 42.9 µM, the GI50 (HCT-116; [4]) was 3.22 µM and the CC50 (HCT-116; [5]) was greater than 100 µM. The “%GI” value (HCT-116; one dose 10 µM) was 90.87%, the “GP (growth percent)” value (HCT-116; one dose 10 µM) was 9.13 and the TGI (HCT-15; 5-dose 0.01-100 µM) was greater than 100 µM. The GI50 (HCT-15; [4]) was 2.98 µM, the CC50 (HCT-15; [5]) was greater than 100 µM and the “GP (growth percent)” value (HCT-15; one dose 10 µM) was 13.17. The TGI (OVCAR-3; 5-dose 0.01-100 µM) was 8.40 µM, the GI50 (OVCAR-3; [4]) was 2.98 µM and the CC50 (OVCAR-3; [5]) was greater than 100 µM. The “%GI” value (OVCAR-3; one dose 10 µM) was 86.38%, the “GP (growth percent)” value (OVCAR-3; one dose 10 µM) was 13.62 and the “Mean % GI” value ([1]; 10 µM) was 60.11%. For the same molecule, the “Selectivity Ratio (MID a:MID b)” value ([1]; 5-dose assay) was 0.76, the GI50 [1, 6] was 6.46 µM and the “Mean % GI” value ([2]; 10 µM) was 56.51%. For the same molecule, the “Selectivity Ratio (MID a:MID b)” value ([2]; 5-dose assay) was 0.92, the GI50 [2, 6] was 5.32 µM and the TGI (MOLT-4; 5-dose 0.01-100 µM) was 13.3 µM. For the same molecule, the GI50 (MOLT-4; [4]) was 2.87 µM, the CC50 (MOLT-4; [5]) was greater than 100 µM and the “%GI” value (MOLT-4; one dose 10 µM) was 87.76%. The “GP (growth percent)” value (MOLT-4; one dose 10 µM) was 12.24, the TGI (COLO 205; 5-dose 0.01-100 µM) was 44.3 µM and the GI50 (COLO 205; [4]) was 16.2 µM. For the same molecule, the CC50 (COLO 205; [5]) was greater than 100 µM, the “%GI” value (COLO 205; one dose 10 µM) was −6.58% and the “GP (growth percent)” value (COLO 205; one dose 10 µM) was 106.58. It also gave a TGI (SK-MEL-5; 5-dose 0.01-100 µM) of 16.1 µM, a GI50 (SK-MEL-5; [4]) of 3.67 µM and a CC50 (SK-MEL-5; [5]) greater than 100 µM. The “%GI” value (SK-MEL-5; one dose 10 µM) was 90.96%, the “GP (growth percent)” value (SK-MEL-5; one dose 10 µM) was 9.04 and the “Mean % GI” value (Melanoma cell line panel; 10 µM) was 76.24%. For the same molecule, the “Selectivity Ratio (MID a:MID b)” value (Melanoma cell line panel; 5-dose assay) was 1.06, the GI50 (Melanoma cell line panel; [6]) was 4.59 µM and the TGI (UO-31; 5-dose 0.01-100 µM) was 36.4 µM. For the same molecule, the GI50 (UO-31; [4]) was 1.52 µM, the LC50 (50% lethal concentration) (UO-31; [4]) was greater than 100 µM and the “%GI” value (UO-31; one dose 10 µM) was 77.33%. For the same molecule, the “GP (growth percent)” value (UO-31; one dose 10 µM) was 22.67, the “Mean % GI” value ([3]; 10 µM) was 72.17% and the “Selectivity Ratio (MID a:MID b)” value ([3]; 5-dose assay) was 1.07. The GI50 [3, 6] was 4.55 µM, the GI50 (60 NCI cancer cell lines; Homo sapiens, read-out: GI50 values, range over cell lines) was 1.25 to 18.8 µM and the CC50 (60 NCI cancer cell lines; Homo sapiens, 5-dose assay, read-out: LC50 over cell lines) was greater than 100 µM. For the same molecule, the GI50 (60 NCI cancer cell lines; Homo sapiens, 5-dose assay, read-out: MID a (mean GI50 of 60 NCI cancer cell lines)) was 4.89 µM, the “Mean % GI” value (60 NCI cancer cell lines; [7]) was 66.46% and the “Mean GP” value (60 NCI cancer cell lines; [7]) was 33.54. For the same molecule, the TGI (IGROV1; 5-dose 0.01-100 µM) was 57.0 µM, the GI50 (IGROV1; Homo sapiens, IGROV-1, 5-dose 0.01-100 µM) was 4.49 µM and the CC50 (IGROV1; Homo sapiens, IGROV-1, 5-dose 0.01-100 µM, read-out: LC50 (the source's name)) was greater than 100 µM. For the same molecule, the “%GI” value (IGROV1; one dose 10 µM) was 65.61%, the “GP (growth percent)” value (IGROV1; one dose 10 µM) was 34.39 and the TGI (HL-60(TB); 5-dose 0.01-100 µM) was 6.69 µM. The GI50 (HL-60(TB); [4]) was 2.55 µM, the CC50 (HL-60(TB); [5]) was greater than 100 µM and the “%GI” value (HL-60(TB); one dose 10 µM) was 94.68%. The “GP (growth percent)” value (HL-60(TB); one dose 10 µM) was 5.32, the LC50 (50% lethal concentration) (MDA-MB-468; Homo sapiens, MDA-MB-468, read-out: LC50) was greater than 100 µM and the GI50 (MDA-MB-468; Homo sapiens, MDA-MB-468, 5-dose 0.01-100 µM) was 3.55 µM. For the same molecule, the TGI (MDA-MB-468; MDA-MB-468, 5-dose 0.01-100 µM) was 21.6 µM, the “%GI” value (MDA-MB-468; MDA-MB-468, one dose 10 µM) was 65.32% and the “GP (growth percent)” value (MDA-MB-468; MDA-MB-468, one dose 10 µM) was 34.68.

Reference: publication PMC8398451, “Molecular Engineering of Curcumin, an Active Constituent of Curcuma longa L. (Turmeric) of the Family Zingiberaceae with Improved Antiproliferative Activity” (Plants, 2021)
